Converted amounts (≈) assume the structure as drawn. Where two headings read alike, the source gives them in different places.
Legend:
M. tuberculosis H37Rv [1] = assay: microbe, parasite or virus in culture; format: cell-based; conditions: Mycobacterium tuberculosis, read-out: MIC H37Rv
M. tuberculosis Beijing = assay: microbe, parasite or virus in culture; format: cell-based; conditions: Mycobacterium tuberculosis, read-out: MIC Beijing
M. tuberculosis inh233 = assay: microbe, parasite or virus in culture; format: cell-based; conditions: Mycobacterium tuberculosis, INH233, read-out: MIC inh233
M. tuberculosis CDC1551 = assay: microbe, parasite or virus in culture; format: cell-based; conditions: Mycobacterium tuberculosis, CDC1551, read-out: MIC CDC1551
[2] = tested on: M. bovis BCG strain Pasteur; assay: microbe, parasite or virus in culture; format: cell-based; conditions: Mycobacterium tuberculosis variant bovis BCG, read-out: MIC M. bovis BCG
[3] = tested on: Enterococcus faecium, Enterococcus faecalis, Haemophilus influenzae, Moraxella catarrhalis, Streptococcus pneumoniae, Escherichia coli and Streptococcus …; format: cell-based, Gram-positive and Gram-negative organisms
[4] = tested on: L1210, HepG2, NEURO 2A, MDCK and H9C2(2-1)
[5] = not given; remark: listed apart in the source
in vitro [6] = conditions: mouse, microsomes, pH 7.4
in vitro [7] = conditions: human, microsomes, pH 7.4
[8] = Whole blood pharmacokinetics after oral administration in mice; format: in vivo, C57BL/6 female mice; conditions: female, mouse, oral 50 mg/kg suspension in 1% aqueous methylcellulose
Experimental: (§1) For pharmacokinetic studies C57BL/6 female mice of 18–20 g weight were used. Experimental compounds were administered through oral gavage at 50 mg/kg dose at a concentration of 20 ml/kg. All mice received treatment in the fed state. Peripheral total blood was the compartment chosen for the establishment of compound concentrations. Drugs were administered as 1% methyl cellulose suspensions and the blood sampling scheme was: 15, 30 and 45 minutes, 1, 1.5, 2, 3, 4, 8 and 24 hours. At each time-point, blood from 4 different animals was obtained. LC-MS was used as the analytical method of choice for the establishment of compound concentration in blood with a sensitivity of LLQ = 1–5 ng/ml in […]. The non-compartmental data analysis was performed with WinNonlin 5.0 and supplementary analysis was performed with GraphPad 4 software. Dose-response studies in an acute murine infection TB model were carried out as previously described.
Figure 2 Whole blood pharmacokinetic profile and main parameters of IP 3 after oral administration of a 50 mg/kg suspension in 1% aqueous methylcellulose.

M. tuberculosis H37Rv [9] = assay: Dose response efficacy in acute murine model of TB infection; format: in vivo, B6 mice
Experimental: as §1
Figure 3 Therapeutic efficacy of anti-tubercular IP 3 against M. tuberculosis H37Rv in vivo. B6 mice were infected by intra-tracheal instillation with 10^5 cfu M. tuberculosis H37Rv per mouse. The mice were treated with the anti-tubercular orally once a day from day 1 to day 8. Efficacy results are expressed as log cfu reduction in the lungs of infected mice and are the mean±SD of five mice. The shaded line indicates the levels of administered mycobacterial inoculum.

cytochrome bc 1 complex = target: cytochrome bc 1 complex; parameters: method as in PMID 6327677; conditions: high affinity binding site Qo; cited from earlier work

Cc1ccc2nc(C)c(C(=O)NCc3cccs3)n2c1 [IP 1]
MIC (M. tuberculosis H37Rv [1]): 0.2 µM (≈ 0.0571 µg/mL)
MIC (M. tuberculosis Beijing): 0.03 µM (≈ 0.00856 µg/mL)
MIC (M. tuberculosis inh233): 0.03 µM (≈ 0.00856 µg/mL)
MIC (M. tuberculosis CDC1551): 0.06 µM (≈ 0.0171 µg/mL)
MIC [2]: 1 µM (≈ 0.285 µg/mL)
MIC Anti-bacterial panel [3]: all>64 µM
Tox50 Cell lines [4]: all>25 µM
Mouse CLint (mouse liver microsomes): >30 ml/min/gprotein
Human CLint ([5]; human liver microsomes): 3.9 ml/min/gprotein
half-life at 0.5 mM (in vitro [6]): < 3 min

Cc1ccc2nc(C(F)(F)F)c(C(=O)NCc3cccc(Cl)c3)n2c1 [IP 2]
MIC (M. tuberculosis H37Rv [1]): 0.2 µM (≈ 0.0736 µg/mL)
MIC (M. tuberculosis Beijing): 0.06 µM (≈ 0.0221 µg/mL)
MIC (M. tuberculosis inh233): 0.03 µM (≈ 0.011 µg/mL)
MIC (M. tuberculosis CDC1551): 0.06 µM (≈ 0.0221 µg/mL)
MIC Anti-bacterial panel [3]: all>16 µM
Tox50 Cell lines [4]: all>50 µM
Mouse CLint (mouse liver microsomes): >30 ml/min/gprotein
Human CLint ([5]; human liver microsomes): >30 ml/min/gprotein
half-life at 0.5 mM (in vitro [6]): < 3 min
half-life at 0.5 mM (in vitro [7]): < 3 min

Cc1ccc2nc(C)c(C(=O)NCc3ccc(C(F)(F)F)cc3)n2c1 [IP 3, 2,6-Dimethyl-N-(4-(trifluoromethyl)benzyl)imidazo[1,2-a]pyridine-3-carboxamide]
MIC (M. tuberculosis H37Rv [1]): 0.03 µM (≈ 0.0104 µg/mL)
MIC [2]: 0.5 µM (≈ 0.174 µg/mL)
MIC Anti-bacterial panel [3]: all>16 µM
bioavailability ([8]; C57BL/6, whole blood, read-out: F (percentage bioavailability)): 61%
AUC ([8]; C57BL/6, whole blood, read-out: AUC (Area Under the Curve) (0–8 hours)): 4360 ng·h/mL
Cmax ([8]; C57BL/6, whole blood, read-out: Cmax (maximum concentration observed in whole blood)): 3400 ng/mL
log cfu reduction with respect to non-treated controls (M. tuberculosis H37Rv [9]; 300 mg/kg orally once a day from day 1 to day 8, lungs of infected mice): 2 log cfu
log cfu reduction with respect to non-treated controls (M. tuberculosis H37Rv [9]; 500 mg/kg orally once a day from day 1 to day 8, lungs of infected mice): 2 log cfu
behavior in vivo (M. tuberculosis H37Rv [9]; acute murine model of TB infection): bacteriostatic
signs of toxicity (M. tuberculosis H37Rv [9]; any of the administered doses, mice): No signs of toxicity
Tox50 Cell lines [4]: all>25 µM
Mouse CLint (mouse, microsomes): 7 ml/min/gprotein
Human CLint ([5]; human, microsomes): 4.9 ml/min/gprotein
half-life (in vitro [6]): 11.6 min
half-life (in vitro [7]): 15.8 min

Cc1ccc2nc(C)c(C(=O)NCc3ccc(Cl)nc3)n2c1 [IP 4, N-((6-Chloropyridin-3-yl)methyl)-2,6-dimethylimidazo[1,2-a]pyridine-3-carboxamide]
MIC (M. tuberculosis H37Rv [1]): 5 µM (≈ 1.57 µg/mL)
MIC [2]: 5 µM (≈ 1.57 µg/mL)
MIC Anti-bacterial panel [3]: all>16 µM
Tox50 Cell lines [4]: all>50 µM
Mouse CLint (mouse, microsomes): 7.4 ml/min/gprotein
Human CLint ([5]; human, microsomes): 2.3 ml/min/gprotein
half-life (in vitro [6]): 11.4 min
half-life (in vitro [7]): > 30 min

CO/C(=C/C(N)=O)[C@H](C)[C@H](/C=C/c1csc(-c2csc([C@@H](C)/C=C/C=C/C(C)C)n2)n1)OC [Myxothiazol, myxothiazol]
Kd (cytochrome bc 1 complex): < 1 nM
